Laboratory results reported in PubChem BioAssay AID624258 (Broad Institute, 2012).
Active and inactive are the calls of the source. The rule behind the calls is not given here.

What follows are molecules tested on S. cerevisiae SKN7-toxicity growth rescue, plate reader (assay: Yeast SKN7 toxicity growth rescue counterscreen, Saccharomyces cerevisiae, plate reader, dose confirmatory (AID 624258);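 note: growth read after three days of incubation at 30 °C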).

Compound | AC40
O=C1/C(=C/c2cccs2)SC(=S)N1NS(=O)(=O)c1ccccc1 | 3.71 µM
CCOc1ccc(-n2c(O)c(/C=N/NC(=O)C3COc4ccccc4O3)c3ccccc3c2=O)cc1 (configuration not stated) | 2.18 µM
Cc1ccc(COc2ccc(Br)cc2/C=N/O)cc1 | 1.27 µM
CC1=CC(=O)C(C(C)C)=C/C1=N/OS(=O)(=O)c1ccccc1 | 0.11 µM
Cc1ccc(CCNc2ncnc(Cl)c2N)cc1 | 3.87 µM
COc1cccc(NC=C2C(=O)OC3(CCCCC3)OC2=O)c1 | 5.08 µM
C(=N\Nc1nncc2ccccc12)/c1ccccn1 | 3.27 µM
Cc1csc2nc(O)c(C(=O)NCCCc3ccccc3)c(=O)n12 | 0.801 µM
COc1cccc2c1C(=O)c1c(O)c3c(c(O)c1C2=O)CC(O)(C(C)=O)CC3OC1CC(N(C)C)C(O)C(C)O1 (configuration not stated) | 2.85 µM
O=C(N/N=C(\c1ccccc1)c1cccnc1)c1cccc(F)c1 | 1.12 µM
O=C(CSc1ccc(-c2ccccn2)nn1)NC1CCCCC1 | 16.1 µM
Cc1ccc(-c2cc(-c3ccc(C)cc3)[n+](-c3ccccc3)c(-c3ccc(C)cc3)c2)cc1 | 4.13 µM
O=C1C=C(Nc2cccnc2)c2ccccc2C1=O | 11 µM
N#C/C(=C\c1cccnc1)c1ccc(Br)cc1 | 15.9 µM
CC(=O)c1ccc(Sc2ccccc2)c([N+](=O)[O-])c1 | > 19.5 µM (inactive)
COc1ccccc1N(C)S(=O)(=O)c1ccc(Cl)c(C(=O)NNC(=O)c2ccccc2O)c1 | 1.95 µM
CC(=O)c1c(C)oc2c1C(=O)c1ccccc1C2=O | 1.92 µM
Cc1ccc(C2(c3ccc(C)cc3)CC2C(=O)Nc2ccc([N+](=O)[O-])cc2O)cc1 (configuration not stated) | 6.78 µM
Clc1cccc(-c2noc3ncnc(Nc4ccc5c(c4)OCO5)c23)c1 | 7.06 µM
COc1ccccc1C1CCN(c2cc(O)ccc2[N+](=O)[O-])CC1 | 2.83 µM
O=C1C(=C(I)I)c2ccccc2-c2ccccc21 | 2.07 µM
COc1ccc2c(c1)S/C(=C\C(=O)c1ccncc1)N2C | 1.76 µM
CCCCOc1ccc2c(c1)C(=O)c1cc(O)ccc1-2 | 1.93 µM
CC1=C(C)/C(=N\OS(=O)(=O)c2ccc(C)cc2)C=CC1=O | 1.11 µM

Compound | AC40
COc1cc2c(cc1/C=C/[N+](=O)[O-])OCO2 | 6.54 µM
CCOC(=O)N1CCN(S(=O)(=O)c2ccc(C(=O)NNc3nc4ccc(Cl)cc4s3)cc2)CC1 | 6.89 µM
COc1ccc(C(=O)c2c(C(F)(F)F)oc3c2C(=O)c2ccccc2C3=O)cc1OC | 14.3 µM
O=C1CC(N2CCCCCC2)C(=O)N1c1ccc2c(c1)OCO2 (configuration not stated) | 6.75 µM
Clc1ccc(OCc2nc(-c3ccncc3)no2)c(Br)c1 | 0.95 µM
COc1ccc2c(c1)c1nnc(SC)nc1n2C | 2 µM
CC1Cc2ccccc2N1c1ncnc(N)c1[N+](=O)[O-] (configuration not stated) | 7.27 µM
O=C1c2ccccc2C(=O)c2c1oc(C(F)(F)F)c2C(=O)c1ccccc1 | 2.6 µM
C[C@]12CCC3C(CC[C@H]4C[C@@H](O)CC[C@]34C)C1CC[C@@H]2OC(=O)[C@H](N)CCCCN (some centres not stated) | 11 µM
COc1ccc(N=N/C(=C\O)C(=O)c2cccs2)cc1 | 1.32 µM
O=C(O)c1ccc(N/N=C/C2=C(N3CCOCC3)C(=C\c3ccccc3)/CC2)cc1 | 5.01 µM
N/C(Cc1ccc(Cl)cc1Cl)=N\OC(=O)c1ccc(Br)o1 | 0.746 µM
N#C/C(=C\c1cccc(Oc2ccccc2)c1)C(=O)N1CCOCC1 | 8.47 µM
COc1ccc(NC(=O)/C(Cl)=C(/Cl)S(=O)(=O)Cc2ccc(C)cc2)cn1 | 1.24 µM
CN(C)S(=O)(=O)c1cccc(NC(=S)NNC(=O)c2cc3ccccc3cc2O)c1 | 1.27 µM
CSc1nccc(NC(=O)c2ccc(C(C)(C)C)cc2)n1 | 7.82 µM
O=c1[nH]cc(F)c(=O)[nH]1 | 9.32 µM
COc1ccccc1-c1cc(C(F)(F)F)nc(S(C)(=O)=O)n1 | 1.71 µM
S=c1[nH]nc(-c2ccco2)n1/N=C/C(Cl)=C/c1ccccc1 | 10.8 µM
Oc1ccc(Cl)cc1CNc1cccc2cccnc12 | 0.156 µM
CC/C(=N\Nc1ccc([N+](=O)[O-])cc1)c1ccccc1 | 1.62 µM
COc1ccc2c(c1)[C@H]1[C@H](CO2)[C@H](c2ccccc2)[C@]2(C)C(=O)Nc3ccc(Cl)cc3C(=O)N12 | 17.2 µM
COc1ccc(OC)c2c1C(=O)C(Cl)=C(Cl)C2=O | 0.66 µM
Cc1[nH]n(-c2ccccc2)c(=O)c1/C=N/Nc1nncc(-c2ccccc2)n1 | 1.11 µM

Compound | AC40
COc1cccc(C(=O)N/N=C(/c2ccccc2)c2ccccn2)c1 | 3.84 µM
CCCCC(=O)NC(c1ccc(OC)c(OC)c1)c1ccc2cccnc2c1O (configuration not stated) | 1 µM
Cc1ccc(CNC(=O)CSc2ccc(-c3ccccn3)nn2)cc1 | 2.75 µM
N#C/C(=C\Nc1ccccc1O)c1nc2ccccc2o1 | 1.12 µM
Cc1onc(-c2ccccc2)c1C(=O)NC(=S)NNC(=O)c1cc(-c2ccc(F)cc2)n[nH]1 | 2.1 µM
Clc1cccc(N/N=C(\Cc2nc3ccccc3[nH]2)c2ccccc2)c1 | 2.61 µM
CCOC(=O)/C(=C/c1ccc(OC(=O)c2ccccc2)cc1)C(C)=O | 1.83 µM
CCNc1nc(N)nc(-c2cc(Cl)ccc2O)n1 | 2.17 µM
Cc1ccc(C)c(C(=O)O/N=C(\N)c2ccc(Br)cc2)c1 | 3.86 µM
C[C@@]12C(=O)Nc3ccc(F)cc3C(=O)N1[C@H]1c3ccccc3OC[C@@H]1[C@@H]2c1ccccc1 | 11.5 µM
Cc1cc([N+](=O)[O-])cc(/C=N/n2c(C)nc3ccccc3c2=O)c1O | 4.24 µM
CCn1c(=O)oc2cc(NC(=O)CCl)ccc21 | 18.2 µM
CC1(C(=O)OCC(=O)Nc2ccc3ccccc3c2)CC1(Cl)Cl (configuration not stated) | 17.6 µM
O=C(CCCNC(=O)c1ccc(Cl)cc1)OCc1cccc(Br)c1 | > 19.5 µM (inactive)
O=C(N/N=C/c1cc(Br)ccc1O)c1ccccc1Cl | 0.659 µM
Cc1csc(NC(=S)Nc2cccc(Cl)c2)n1 | 11.6 µM
COc1ccc(CNC(=O)c2c(C)oc3c2C(=O)c2ccccc2C3=O)cc1 | 8.26 µM
O=C(C1=C(Nc2ccccc2)c2ccccc2S(=O)(=O)N1)c1ccccc1 | 2.51 µM
Cc1ccc(C)c(S(=O)(=O)N2CCN(Cc3ccc(O)c4ncccc34)CC2)c1 | 5.93 µM
O=C(CSc1ccc(-c2ccccn2)nn1)N1CCCc2ccccc21 | 4.75 µM
CSC(=S)N/N=C/c1ccccc1 | 3.19 µM
CCc1ccc(NC(=O)CSc2ccc(-c3ccccn3)nn2)cc1 | 0.968 µM
CN(C1=C(NC(=O)c2ccc(Cl)cc2)C(=O)c2ccccc2C1=O)c1ccccc1 | 4.87 µM
Cc1nc2ccc(NC(=O)COc3cccc(F)c3)cc2s1 | 1.43 µM

Compound | AC40
Clc1cccc(CON/C=N/c2ncnc3sccc23)c1 | 3.8 µM
O=C(Nc1cccnc1)c1ccc2ccccc2c1O | 0.908 µM
O=C1Nc2c(Cl)cc(Cl)cc2C1=O | > 19.5 µM (inactive)
Cc1cccc(C)c1N=Nc1c(C)cc(O)cc1C | 1.12 µM
O=C1C=C(Nc2ccccc2O)c2ccccc2C1=O | 12.6 µM
O=c1c2c(-c3ccc(Cl)cc3)csc2ncn1/N=C/c1cccc([N+](=O)[O-])c1O | 1.23 µM
COc1ccc(C(c2c(O)ccc3ccccc23)N2CCOCC2)c(OC)c1 (configuration not stated) | 2.35 µM
Fc1ccc(CCNC(=S)Nc2ccc(F)c(Cl)c2)cc1 | 3.7 µM
Cc1cccc(C)c1NC(=O)c1nc(S(=O)(=O)Cc2ccccc2)ncc1Cl | 7.57 µM
O=C(COc1ccc(Cl)cc1)NCCSCc1cccc(Cl)c1 | 3.16 µM
COc1cc(/C=C2\SC(=S)N(NS(=O)(=O)c3ccc(C)cc3)C2=O)ccc1O | 1.64 µM
Cn1cnc([N+](=O)[O-])c1S(=O)(=O)Oc1ccc(Cl)cc1 | 1.31 µM
Cc1cc(C(=O)N/N=C/c2ccc(O)c(O)c2O)c(C)n1-c1ccccc1 | 1.36 µM
N#CC1=C(N)NC(=S)C(C(N)=O)C1c1ccc(Cl)cc1Cl (configuration not stated) | 10.5 µM
Cc1onc(-c2c(Cl)cccc2Cl)c1C(=O)N/N=C(\N)COc1ccc(Cl)cc1 | 2.55 µM
Cc1ccc(NC2(c3nnnn3-c3c(C)cccc3C)CCCCC2)cc1 | > 19.5 µM (inactive)
CC(C)=CCc1c(O)cc(O)c2c1OC(c1ccc(O)cc1)CC2=O (configuration not stated) | 12.7 µM
CC(C)(C)C(=O)C(Cl)C(=O)Nc1ccccc1 (configuration not stated) | 2.17 µM
CC(C)n1cnc2c(NCc3ccccc3)cc(Cc3ccc(F)cc3)cc21 | 3.4 µM
Cc1ccccc1NC(=O)CSc1ccc(-c2ccccn2)nn1 | 7.17 µM
CCc1oc2ccccc2c1C(=O)c1cc(Br)c(O)c(Br)c1 | 0.912 µM
Cc1ccc2oc(-c3ccccc3)c(C(=O)O)c(=O)c2c1 | 1.26 µM
O=S(=O)(NCC1COc2ccccc2O1)c1ccc2ccccc2c1 (configuration not stated) | 8.68 µM
Cc1cc2[nH]c3c4ccccc4nc(C)c3c2cc1C | 11.2 µM

Compound | AC40
CN(C)c1ccc(-n2cccc2/C=C/[N+](=O)[O-])cc1 | 1.16 µM
O=C1c2ccccc2NC(c2ccc(-c3ccc(F)cc3)o2)N1O (configuration not stated) | 14 µM
O=C1CC(O)(C(F)(F)F)Oc2c1ccc1ccccc21 (configuration not stated) | 0.814 µM
CNc1ccc(C=C2C=Cc3ccccc32)cc1 | 0.998 µM
CC1CC(C)CN(C(=O)c2cccc(S(=O)(=O)Nc3cc(C(F)(F)F)ccc3Cl)c2)C1 (configuration not stated) | 16.8 µM
CC(C)c1cc(-c2cc(C(=O)NCc3ccccc3)on2)nc(NCC2CC2)n1 | 7.9 µM
Cc1[nH]n(-c2cccc3ccccc23)c(=O)c1/C=N/NC(=O)c1cccc([N+](=O)[O-])c1 | 0.738 µM
Nc1[nH]c(=O)ncc1F | 1.83 µM
O=[N+]([O-])c1ccc(-c2nc(-c3cccs3)c(-c3cccs3)[nH]2)cc1 | 4.72 µM
CCS(=O)(=O)c1ccc(N=Nc2ccc(O)c3ncccc23)c(OC)c1 | 3.56 µM
COC(=O)c1ccc(N2C(=O)CC(N(C)CCc3ccc(OC)c(OC)c3)C2=O)cc1 (configuration not stated) | 8.6 µM
CCOc1ccc(/C=C2/SC(=O)NC2=S)cc1 | 1.24 µM
O=C(NC1=CC(=O)c2ccccc2C1=O)c1ccccc1 | 3.18 µM
Cc1ccc(NC(=O)c2cc(N3C(=O)C=CC3=O)ccc2Cl)cc1C | 0.342 µM
COc1ccc(CSCC(=O)Nc2ccc(S(=O)(=O)N3CCCCCC3)cc2)cc1 | 6.93 µM
COc1ccc2cnn(CCOc3cc(C)ccc3C(C)C)c(=O)c2c1OC | 4.15 µM
COc1ccc(N(C(=O)c2ccncc2)S(=O)(=O)c2ccc(F)cc2)cc1 | 3.67 µM
O=c1[nH]c(=O)n(C2OC(CO)C(O)C2O)cc1F (configuration not stated) | 12.9 µM
O=C(Nc1ccc(Cl)c(Cl)c1)C1CCCCC1 | 0.565 µM
CNC1=C(N(C(C)=O)c2ccc(Br)cc2)C(=O)c2ccccc2C1=O | 15.8 µM
Cc1ccnc(NC(c2ccsc2)c2ccc3ccc(C)nc3c2O)c1 (configuration not stated) | 6.7 µM
